Reference: US11629143B2, “HipK4 inhibitors and uses thereof” (Vibliome Therapeutics, LLC, priority 2020, dated 2023)

Columns and labels:
Test in all cases: Kinase panel (mobility shift)
Assay type in all cases: biochemical
EPH-B2 = molecular target: T1, EPH-B2 (Homo sapiens, UniProt P29323); settings: at 5 um
T1 sequence (P29323 19-1055): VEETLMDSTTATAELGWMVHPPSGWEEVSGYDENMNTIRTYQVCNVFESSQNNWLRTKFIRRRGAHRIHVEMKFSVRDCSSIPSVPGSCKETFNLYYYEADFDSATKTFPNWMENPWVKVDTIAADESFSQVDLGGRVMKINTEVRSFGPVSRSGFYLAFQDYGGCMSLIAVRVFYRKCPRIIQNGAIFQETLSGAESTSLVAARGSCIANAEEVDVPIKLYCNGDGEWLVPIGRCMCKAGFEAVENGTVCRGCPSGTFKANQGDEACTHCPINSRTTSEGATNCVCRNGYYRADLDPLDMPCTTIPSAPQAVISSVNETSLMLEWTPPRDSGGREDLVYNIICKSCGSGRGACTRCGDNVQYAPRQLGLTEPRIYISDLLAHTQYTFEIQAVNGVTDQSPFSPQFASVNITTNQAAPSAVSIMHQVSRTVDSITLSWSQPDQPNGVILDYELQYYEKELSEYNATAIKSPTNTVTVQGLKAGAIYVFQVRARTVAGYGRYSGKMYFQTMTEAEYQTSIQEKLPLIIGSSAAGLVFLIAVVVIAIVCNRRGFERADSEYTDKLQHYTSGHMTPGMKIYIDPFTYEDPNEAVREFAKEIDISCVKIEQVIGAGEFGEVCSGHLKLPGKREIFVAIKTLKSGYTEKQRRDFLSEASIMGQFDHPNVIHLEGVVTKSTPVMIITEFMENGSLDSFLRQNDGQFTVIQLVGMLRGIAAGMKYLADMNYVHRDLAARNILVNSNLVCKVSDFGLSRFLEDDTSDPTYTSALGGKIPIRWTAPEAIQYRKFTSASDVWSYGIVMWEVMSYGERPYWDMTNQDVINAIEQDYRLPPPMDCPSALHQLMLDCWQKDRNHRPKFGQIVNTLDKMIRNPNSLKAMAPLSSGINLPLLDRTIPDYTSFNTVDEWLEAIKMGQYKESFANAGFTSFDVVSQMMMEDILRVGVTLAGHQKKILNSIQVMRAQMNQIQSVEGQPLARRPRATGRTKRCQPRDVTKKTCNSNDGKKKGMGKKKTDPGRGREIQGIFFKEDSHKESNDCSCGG
Procedure, shortened: (§1)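 Each kinase was incubated with a fluorescently labeled substrate and compound in a standard reaction mix. After the reaction was stopped, product and substrate were separated on microfluidic chips by electrophoretic mobility shift. Activity came from comparing product and substrate peak fluorescence, graded A (95% or greater), B (90%-94%) or C (80%-89%) at 5 um.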

P38-a = P38-a (Homo sapiens, UniProt Q16539); settings: at 5 um
Chain of P38-a (Q16539 whole entry): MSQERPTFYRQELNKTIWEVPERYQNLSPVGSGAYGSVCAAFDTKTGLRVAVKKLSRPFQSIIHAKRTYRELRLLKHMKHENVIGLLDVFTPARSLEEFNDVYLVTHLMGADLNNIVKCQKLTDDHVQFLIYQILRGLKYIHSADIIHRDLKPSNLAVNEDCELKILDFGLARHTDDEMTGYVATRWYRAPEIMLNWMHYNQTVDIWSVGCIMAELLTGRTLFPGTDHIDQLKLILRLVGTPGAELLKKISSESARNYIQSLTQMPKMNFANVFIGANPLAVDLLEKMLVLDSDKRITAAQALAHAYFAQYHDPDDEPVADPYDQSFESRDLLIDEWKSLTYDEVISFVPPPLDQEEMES
Procedure, shortened: as §1

EPH-B4 = molecular target: T2, EPH-B4 (Homo sapiens, UniProt P54760)
T2 sequence (P54760 16-987): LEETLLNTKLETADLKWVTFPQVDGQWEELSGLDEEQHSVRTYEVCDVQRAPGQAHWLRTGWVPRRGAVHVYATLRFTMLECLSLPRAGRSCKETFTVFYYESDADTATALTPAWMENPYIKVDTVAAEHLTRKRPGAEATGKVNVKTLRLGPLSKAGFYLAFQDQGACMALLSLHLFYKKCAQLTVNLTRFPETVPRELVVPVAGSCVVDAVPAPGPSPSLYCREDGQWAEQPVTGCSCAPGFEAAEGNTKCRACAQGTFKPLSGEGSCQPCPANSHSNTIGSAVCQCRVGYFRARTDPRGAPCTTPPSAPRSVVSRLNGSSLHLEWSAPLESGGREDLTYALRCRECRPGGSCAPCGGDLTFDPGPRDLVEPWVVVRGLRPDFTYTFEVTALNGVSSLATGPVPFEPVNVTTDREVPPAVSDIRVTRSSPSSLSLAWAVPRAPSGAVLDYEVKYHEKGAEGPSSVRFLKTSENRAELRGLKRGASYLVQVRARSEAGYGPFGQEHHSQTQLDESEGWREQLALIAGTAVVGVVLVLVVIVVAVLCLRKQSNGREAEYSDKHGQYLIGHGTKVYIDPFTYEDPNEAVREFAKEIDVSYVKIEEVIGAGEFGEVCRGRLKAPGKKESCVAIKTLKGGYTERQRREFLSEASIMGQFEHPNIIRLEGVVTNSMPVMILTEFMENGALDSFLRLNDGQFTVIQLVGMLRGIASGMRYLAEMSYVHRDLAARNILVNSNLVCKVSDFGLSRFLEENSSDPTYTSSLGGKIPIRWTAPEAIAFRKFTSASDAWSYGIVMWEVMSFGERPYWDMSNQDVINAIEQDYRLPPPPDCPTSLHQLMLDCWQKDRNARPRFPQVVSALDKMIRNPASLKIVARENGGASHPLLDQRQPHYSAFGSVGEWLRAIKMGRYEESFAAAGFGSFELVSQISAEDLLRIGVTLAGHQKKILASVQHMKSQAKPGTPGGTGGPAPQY
Procedure, shortened: as §1

PDGFR-a = PDGFR-a (Homo sapiens, UniProt P16234)
Chain of PDGFR-a (P16234 24-1089, species assumed): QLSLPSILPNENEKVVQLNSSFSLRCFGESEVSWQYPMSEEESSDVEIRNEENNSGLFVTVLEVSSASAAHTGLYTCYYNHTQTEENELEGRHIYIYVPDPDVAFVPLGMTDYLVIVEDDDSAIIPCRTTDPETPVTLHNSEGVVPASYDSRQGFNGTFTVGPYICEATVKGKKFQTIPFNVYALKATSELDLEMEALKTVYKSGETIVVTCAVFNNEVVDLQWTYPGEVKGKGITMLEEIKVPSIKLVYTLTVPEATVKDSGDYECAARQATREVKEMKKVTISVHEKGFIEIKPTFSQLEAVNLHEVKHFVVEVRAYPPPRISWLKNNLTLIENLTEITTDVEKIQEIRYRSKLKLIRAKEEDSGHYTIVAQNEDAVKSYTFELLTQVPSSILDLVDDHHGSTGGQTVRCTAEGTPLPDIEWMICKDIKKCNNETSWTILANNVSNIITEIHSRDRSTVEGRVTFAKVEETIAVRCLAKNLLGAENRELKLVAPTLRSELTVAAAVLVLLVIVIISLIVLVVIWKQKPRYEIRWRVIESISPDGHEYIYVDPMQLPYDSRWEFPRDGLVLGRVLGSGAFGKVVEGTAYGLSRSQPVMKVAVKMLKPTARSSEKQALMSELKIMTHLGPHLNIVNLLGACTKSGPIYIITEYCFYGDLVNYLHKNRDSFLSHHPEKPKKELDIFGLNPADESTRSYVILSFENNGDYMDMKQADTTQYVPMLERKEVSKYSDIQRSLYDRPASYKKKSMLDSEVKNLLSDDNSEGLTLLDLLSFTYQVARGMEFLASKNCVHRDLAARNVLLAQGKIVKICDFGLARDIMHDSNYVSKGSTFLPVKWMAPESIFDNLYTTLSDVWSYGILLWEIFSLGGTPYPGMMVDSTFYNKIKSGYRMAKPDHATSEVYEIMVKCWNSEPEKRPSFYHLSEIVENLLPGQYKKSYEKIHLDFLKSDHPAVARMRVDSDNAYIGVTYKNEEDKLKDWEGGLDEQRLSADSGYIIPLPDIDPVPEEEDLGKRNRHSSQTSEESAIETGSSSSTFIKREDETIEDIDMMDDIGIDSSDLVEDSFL
Procedure, shortened: as §1

inhibition of kinase activity, EPH-B2 (EPH-B2)	inhibition of kinase activity, P38-a (P38-a)	inhibition at 5 µM (EPH-B4) [%]	inhibition at 5 µM (PDGFR-a) [%]	SMILES
D (category D for 50-79)	E (category E is less than 50%)	< 50	< 50	CNC(=O)c1cc(Oc2ccc(NC(=O)c3nc(SC)oc3-c3ccc(F)s3)cc2F)ccn1 [Compound 16]
E (category E is less than 50%)	E (category E is less than 50%)	< 50	< 50	CNC(=O)c1cc(Oc2ccc(NC(=O)c3nc(NC)oc3-c3ccc(F)s3)cc2F)ccn1 [Compound 17]
D (category D for 50-79)	D (category D for 50-79)	50 to 79	50 to 79	CNC(=O)c1cc(Oc2c(F)cc(NC(=O)c3nc(NC)sc3-c3ccc(F)cc3)cc2F)ccn1 [Compound 19]
D (category D for 50-79)	E (category E is less than 50%)	< 50	< 50	CNC(=O)c1cc(Oc2ccc(NC(=O)c3nc(NC)sc3-c3ccc(F)cc3F)cc2F)ccn1 [Compound 21]
D (category D for 50-79)	D (category D for 50-79)	50 to 79	< 50	CNC(=O)c1cc(Oc2ccc(NC(=O)c3nc(NC)sc3-c3ccc(F)cc3C)cc2F)ccn1 [Compound 23]
E (category E is less than 50%)	D (category D for 50-79)	< 50	< 50	CNC(=O)c1cc(Oc2ccc(NC(=O)c3nc(OC)oc3-c3ccc(F)c(F)c3)cc2F)ccn1 [Compound 24]
E (category E is less than 50%)	E (category E is less than 50%)	< 50	< 50	CNC(=O)c1cc(Oc2ccc(NC(=O)c3nc(OC)oc3-c3ccc(F)s3)cc2F)ccn1 [Compound 25]
C (C=80%-89% at 5 um)	B (B=90%-94% at 5 um)	80 to 89	50 to 79	CNC(=O)c1cc(Oc2ccc(NC(=O)c3nc(C4CC4)oc3-c3ccc(F)cc3)cc2F)ccn1 [Compound 26]
E (category E is less than 50%)	D (category D for 50-79)	< 50	< 50	CSc1nc(C(=O)Nc2ccc(Oc3ccnc(C(=O)NC4CNC4)c3)c(F)c2)c(-c2ccc(F)s2)o1 [Compound 27]
E (category E is less than 50%)	E (category E is less than 50%)	< 50	< 50	CSc1nc(C(=O)Nc2ccc(Oc3ccnc(C(=O)NC4COC4)c3)c(F)c2)c(-c2ccc(F)s2)o1 [Compound 28]
E (category E is less than 50%)	A (A=95% or greater at 5 um)	< 50	< 50	CSc1nc(C(=O)Nc2ccc(Oc3ccnc(C(=O)NC4CNC4)c3)c(F)c2)c(-c2ccc(F)cc2)o1 [Compound 29]

Continued, compound first:

SMILES	inhibition of kinase activity, EPH-B2 (EPH-B2)	inhibition of kinase activity, P38-a (P38-a)	inhibition at 5 µM (EPH-B4) [%]	inhibition at 5 µM (PDGFR-a) [%]
CSc1nc(C(=O)Nc2ccc(Oc3ccnc(N)c3Cl)c(F)c2)c(-c2ccc(F)cc2)o1 [Compound 1]	E (category E is less than 50%)	D (category D for 50-79)	< 50	< 50
CSc1nc(C(=O)Nc2ccc(Oc3cc4cnn(C)c4cc3Br)c(F)c2)c(-c2ccc(F)cc2)o1 [Compound 2]	E (category E is less than 50%)	D (category D for 50-79)	< 50	< 50
CNC(=O)c1cc(Oc2ccc(NC(=O)c3nc(SC)oc3-c3ccc(F)cc3Cl)cc2)ccn1 [Compound 3]	E (category E is less than 50%)	E (category E is less than 50%)	< 50	50 to 79
CNC(=O)c1cc(Oc2ccc(NC(=O)c3nc(SC)oc3-c3ccc(F)c(F)c3)cc2)ccn1 [Compound 4]	E (category E is less than 50%)	C (C=80%-89% at 5 um)	< 50	< 50
CNC(=O)c1cc(Oc2ccc(NC(=O)c3nc(SC)oc3-c3ccc(Cl)s3)cc2)ccn1 [Compound 5]	E (category E is less than 50%)	E (category E is less than 50%)	< 50	< 50
CNC(=O)c1cc(Oc2ccc(NC(=O)c3nc(SC)oc3-c3ccc(F)cc3F)cc2)ccn1 [Compound 6]	E (category E is less than 50%)	E (category E is less than 50%)	< 50	< 50
CNC(=O)c1cc(Oc2ccc(NC(=O)c3nc(SC)oc3-c3ccc(OC)cc3)cc2)ccn1 [Compound 7]	E (category E is less than 50%)	E (category E is less than 50%)	< 50	< 50
CSc1nc(C(=O)Nc2ccc(Oc3ccnc(-c4cnn(C)c4)c3)c(F)c2)c(-c2ccc(F)cc2)o1 [Compound 11]	B (B=90%-94% at 5 um)	B (B=90%-94% at 5 um)	80 to 89	90 to 94
CNC(=O)c1cc(Oc2ccc(NC(=O)c3nc(SC)oc3-c3ccc(F)cc3F)cc2F)ccn1 [Compound 12]	D (category D for 50-79)	D (category D for 50-79)	50 to 79	< 50
CNC(=O)c1cc(Oc2ccc(NC(=O)c3nc(S(C)(=O)=O)sc3-c3ccc(F)cc3)cc2F)ccn1 [Compound 13]	E (category E is less than 50%)	E (category E is less than 50%)	50 to 79	50 to 79
CNC(=O)c1cc(Oc2ccc(NC(=O)c3nc(NC)oc3-c3ccc(F)cc3)cc2F)ccn1 [Compound 14]	D (category D for 50-79)	D (category D for 50-79)	50 to 79	< 50
CNC(=O)c1cc(Oc2ccc(NC(=O)c3nc(OC)oc3-c3ccc(F)cc3)cc2F)ccn1 [Compound 15]	D (category D for 50-79)	D (category D for 50-79)	50 to 79	50 to 79
